# Measurements taken from patent publication US11572590B2, “Methods for evaluating tumor cell spheroids using 3D microfluidic cell culture device” (Dana-Farber Cancer Institute, Inc., priority 2017, dated 2023).
# Read-outs that look alike come from different tables or passages of the source.
# Assays:
# Test in all cases: SelectScreen Kinase Profiling, single point inhibition and IC50 for off-target kinases
# Assay type in all cases: biochemical
# off-target kinases [1] = molecular target: T1, off-target kinases (Homo sapiens, UniProt P42679); details: MATK (HYL), ZLYTE, ATP Km app
# T1 sequence (P42679 1-507): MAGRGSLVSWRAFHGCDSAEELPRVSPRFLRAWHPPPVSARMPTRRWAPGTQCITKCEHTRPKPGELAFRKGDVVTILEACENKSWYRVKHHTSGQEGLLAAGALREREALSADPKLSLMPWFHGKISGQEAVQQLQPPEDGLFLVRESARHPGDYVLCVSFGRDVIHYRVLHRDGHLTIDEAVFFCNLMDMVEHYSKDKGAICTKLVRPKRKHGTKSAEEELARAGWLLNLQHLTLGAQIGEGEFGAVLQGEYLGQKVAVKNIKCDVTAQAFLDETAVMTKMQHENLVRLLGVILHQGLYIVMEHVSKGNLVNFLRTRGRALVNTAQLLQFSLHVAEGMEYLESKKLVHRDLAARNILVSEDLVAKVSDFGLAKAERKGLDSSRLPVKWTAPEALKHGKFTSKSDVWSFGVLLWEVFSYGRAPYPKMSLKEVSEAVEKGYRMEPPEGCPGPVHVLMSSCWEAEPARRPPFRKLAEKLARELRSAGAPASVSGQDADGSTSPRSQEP
# off-target kinases [2] = molecular target: off-target kinases (Homo sapiens, UniProt P08581); details: MET (cMet), ZLYTE, ATP Km app
# off-target kinases [3] = molecular target: off-target kinases (Homo sapiens, UniProt Q9UM73, R1275Q); details: ALK R1275Q (mutant), LanthaScreen Binding
# off-target kinases [4] = molecular target: off-target kinases (Homo sapiens, UniProt P15056); details: BRAF; for inhibition: LanthaScreen Binding
# off-target kinases [5] = molecular target: off-target kinases (Homo sapiens, UniProt P07949, Y791F); details: RET Y791F, ATP Km app, ZLYTE
# Chain of off-target kinases (Homo sapiens, UniProt P07949, Y791F) (P07949 29-1114 Y791F): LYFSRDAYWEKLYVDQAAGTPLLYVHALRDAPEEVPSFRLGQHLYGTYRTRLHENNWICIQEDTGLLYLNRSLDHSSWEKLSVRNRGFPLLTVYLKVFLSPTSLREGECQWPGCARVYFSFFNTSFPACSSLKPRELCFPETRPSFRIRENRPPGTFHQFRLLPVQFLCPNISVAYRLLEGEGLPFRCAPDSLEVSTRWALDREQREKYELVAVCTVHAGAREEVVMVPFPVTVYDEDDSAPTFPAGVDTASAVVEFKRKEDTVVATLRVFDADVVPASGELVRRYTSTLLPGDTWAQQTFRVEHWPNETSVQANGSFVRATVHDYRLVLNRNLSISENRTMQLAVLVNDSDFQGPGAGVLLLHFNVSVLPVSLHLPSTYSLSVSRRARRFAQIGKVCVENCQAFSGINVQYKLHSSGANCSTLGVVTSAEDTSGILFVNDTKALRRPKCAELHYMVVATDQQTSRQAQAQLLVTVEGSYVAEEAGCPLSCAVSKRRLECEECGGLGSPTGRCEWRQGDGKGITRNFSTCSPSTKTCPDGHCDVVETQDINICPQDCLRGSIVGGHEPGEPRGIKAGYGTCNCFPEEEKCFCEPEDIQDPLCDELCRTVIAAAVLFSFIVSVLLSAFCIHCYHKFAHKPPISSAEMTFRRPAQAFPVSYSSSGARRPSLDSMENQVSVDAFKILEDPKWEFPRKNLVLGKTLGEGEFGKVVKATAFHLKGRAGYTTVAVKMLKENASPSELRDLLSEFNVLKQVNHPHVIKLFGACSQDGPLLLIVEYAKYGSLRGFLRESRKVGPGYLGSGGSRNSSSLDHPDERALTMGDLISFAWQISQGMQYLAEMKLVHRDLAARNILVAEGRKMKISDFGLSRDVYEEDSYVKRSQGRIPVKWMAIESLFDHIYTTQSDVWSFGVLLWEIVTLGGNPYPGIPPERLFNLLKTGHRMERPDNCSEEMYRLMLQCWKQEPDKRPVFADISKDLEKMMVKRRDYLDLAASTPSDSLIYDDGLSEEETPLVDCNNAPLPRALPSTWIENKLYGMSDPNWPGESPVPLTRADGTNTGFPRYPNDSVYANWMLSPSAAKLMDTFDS
# Chain of off-target kinases (Homo sapiens, UniProt P08581) (P08581 25-1390): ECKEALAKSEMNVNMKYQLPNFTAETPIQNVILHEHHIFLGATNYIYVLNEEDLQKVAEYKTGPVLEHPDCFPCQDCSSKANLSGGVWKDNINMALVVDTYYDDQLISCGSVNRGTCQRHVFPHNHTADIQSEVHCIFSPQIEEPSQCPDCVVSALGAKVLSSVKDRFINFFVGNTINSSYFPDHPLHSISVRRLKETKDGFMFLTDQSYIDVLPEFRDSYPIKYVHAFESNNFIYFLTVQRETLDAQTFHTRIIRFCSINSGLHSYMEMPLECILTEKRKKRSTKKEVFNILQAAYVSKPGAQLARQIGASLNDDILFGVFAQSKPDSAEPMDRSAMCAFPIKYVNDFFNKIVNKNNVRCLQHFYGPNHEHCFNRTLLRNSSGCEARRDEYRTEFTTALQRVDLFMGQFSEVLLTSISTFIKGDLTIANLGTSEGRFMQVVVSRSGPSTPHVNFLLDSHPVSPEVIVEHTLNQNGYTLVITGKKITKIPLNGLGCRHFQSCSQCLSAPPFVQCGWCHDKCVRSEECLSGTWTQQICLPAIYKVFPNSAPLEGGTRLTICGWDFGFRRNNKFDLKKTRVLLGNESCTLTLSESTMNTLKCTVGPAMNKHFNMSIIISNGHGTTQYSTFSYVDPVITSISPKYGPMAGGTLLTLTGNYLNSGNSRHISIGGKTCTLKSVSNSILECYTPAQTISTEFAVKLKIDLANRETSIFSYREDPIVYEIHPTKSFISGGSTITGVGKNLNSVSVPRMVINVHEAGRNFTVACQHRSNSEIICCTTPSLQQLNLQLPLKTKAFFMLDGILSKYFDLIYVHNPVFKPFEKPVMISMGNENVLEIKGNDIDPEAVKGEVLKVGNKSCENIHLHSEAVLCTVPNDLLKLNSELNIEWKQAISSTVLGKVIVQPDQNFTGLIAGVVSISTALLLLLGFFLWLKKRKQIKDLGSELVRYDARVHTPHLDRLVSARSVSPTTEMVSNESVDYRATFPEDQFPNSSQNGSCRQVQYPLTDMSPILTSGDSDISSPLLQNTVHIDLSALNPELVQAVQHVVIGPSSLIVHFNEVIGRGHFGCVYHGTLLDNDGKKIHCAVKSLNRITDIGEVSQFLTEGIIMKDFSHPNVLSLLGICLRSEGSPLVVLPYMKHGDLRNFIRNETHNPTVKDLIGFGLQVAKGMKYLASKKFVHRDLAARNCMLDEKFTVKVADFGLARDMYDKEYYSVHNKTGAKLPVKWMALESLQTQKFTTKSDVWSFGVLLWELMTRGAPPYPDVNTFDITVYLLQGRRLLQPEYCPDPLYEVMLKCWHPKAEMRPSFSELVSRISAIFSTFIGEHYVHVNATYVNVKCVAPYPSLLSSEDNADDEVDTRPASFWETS
# Chain of off-target kinases (Homo sapiens, UniProt P15056) (P15056 whole entry): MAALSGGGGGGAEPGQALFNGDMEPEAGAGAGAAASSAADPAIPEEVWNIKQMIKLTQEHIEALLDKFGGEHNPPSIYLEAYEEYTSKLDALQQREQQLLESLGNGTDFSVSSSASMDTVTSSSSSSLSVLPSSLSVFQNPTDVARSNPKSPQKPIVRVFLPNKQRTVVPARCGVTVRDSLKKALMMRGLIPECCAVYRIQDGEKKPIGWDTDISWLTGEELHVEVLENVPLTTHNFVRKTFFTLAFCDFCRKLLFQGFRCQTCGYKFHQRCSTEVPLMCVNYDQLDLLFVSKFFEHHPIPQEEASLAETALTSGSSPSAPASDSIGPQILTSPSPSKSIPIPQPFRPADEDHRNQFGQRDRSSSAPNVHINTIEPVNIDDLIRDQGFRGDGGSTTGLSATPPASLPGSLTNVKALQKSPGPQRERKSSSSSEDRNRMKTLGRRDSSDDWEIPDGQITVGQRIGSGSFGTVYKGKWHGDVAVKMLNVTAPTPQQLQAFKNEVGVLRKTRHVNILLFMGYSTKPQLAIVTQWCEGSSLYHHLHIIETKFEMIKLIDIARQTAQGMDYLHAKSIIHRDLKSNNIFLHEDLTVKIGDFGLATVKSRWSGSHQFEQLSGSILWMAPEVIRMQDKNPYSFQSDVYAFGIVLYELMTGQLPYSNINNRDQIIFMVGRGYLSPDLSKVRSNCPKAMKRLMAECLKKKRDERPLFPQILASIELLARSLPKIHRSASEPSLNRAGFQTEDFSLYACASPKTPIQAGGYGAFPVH
# Chain of off-target kinases (Homo sapiens, UniProt Q9UM73, R1275Q) (Q9UM73 19-1620 R1275Q): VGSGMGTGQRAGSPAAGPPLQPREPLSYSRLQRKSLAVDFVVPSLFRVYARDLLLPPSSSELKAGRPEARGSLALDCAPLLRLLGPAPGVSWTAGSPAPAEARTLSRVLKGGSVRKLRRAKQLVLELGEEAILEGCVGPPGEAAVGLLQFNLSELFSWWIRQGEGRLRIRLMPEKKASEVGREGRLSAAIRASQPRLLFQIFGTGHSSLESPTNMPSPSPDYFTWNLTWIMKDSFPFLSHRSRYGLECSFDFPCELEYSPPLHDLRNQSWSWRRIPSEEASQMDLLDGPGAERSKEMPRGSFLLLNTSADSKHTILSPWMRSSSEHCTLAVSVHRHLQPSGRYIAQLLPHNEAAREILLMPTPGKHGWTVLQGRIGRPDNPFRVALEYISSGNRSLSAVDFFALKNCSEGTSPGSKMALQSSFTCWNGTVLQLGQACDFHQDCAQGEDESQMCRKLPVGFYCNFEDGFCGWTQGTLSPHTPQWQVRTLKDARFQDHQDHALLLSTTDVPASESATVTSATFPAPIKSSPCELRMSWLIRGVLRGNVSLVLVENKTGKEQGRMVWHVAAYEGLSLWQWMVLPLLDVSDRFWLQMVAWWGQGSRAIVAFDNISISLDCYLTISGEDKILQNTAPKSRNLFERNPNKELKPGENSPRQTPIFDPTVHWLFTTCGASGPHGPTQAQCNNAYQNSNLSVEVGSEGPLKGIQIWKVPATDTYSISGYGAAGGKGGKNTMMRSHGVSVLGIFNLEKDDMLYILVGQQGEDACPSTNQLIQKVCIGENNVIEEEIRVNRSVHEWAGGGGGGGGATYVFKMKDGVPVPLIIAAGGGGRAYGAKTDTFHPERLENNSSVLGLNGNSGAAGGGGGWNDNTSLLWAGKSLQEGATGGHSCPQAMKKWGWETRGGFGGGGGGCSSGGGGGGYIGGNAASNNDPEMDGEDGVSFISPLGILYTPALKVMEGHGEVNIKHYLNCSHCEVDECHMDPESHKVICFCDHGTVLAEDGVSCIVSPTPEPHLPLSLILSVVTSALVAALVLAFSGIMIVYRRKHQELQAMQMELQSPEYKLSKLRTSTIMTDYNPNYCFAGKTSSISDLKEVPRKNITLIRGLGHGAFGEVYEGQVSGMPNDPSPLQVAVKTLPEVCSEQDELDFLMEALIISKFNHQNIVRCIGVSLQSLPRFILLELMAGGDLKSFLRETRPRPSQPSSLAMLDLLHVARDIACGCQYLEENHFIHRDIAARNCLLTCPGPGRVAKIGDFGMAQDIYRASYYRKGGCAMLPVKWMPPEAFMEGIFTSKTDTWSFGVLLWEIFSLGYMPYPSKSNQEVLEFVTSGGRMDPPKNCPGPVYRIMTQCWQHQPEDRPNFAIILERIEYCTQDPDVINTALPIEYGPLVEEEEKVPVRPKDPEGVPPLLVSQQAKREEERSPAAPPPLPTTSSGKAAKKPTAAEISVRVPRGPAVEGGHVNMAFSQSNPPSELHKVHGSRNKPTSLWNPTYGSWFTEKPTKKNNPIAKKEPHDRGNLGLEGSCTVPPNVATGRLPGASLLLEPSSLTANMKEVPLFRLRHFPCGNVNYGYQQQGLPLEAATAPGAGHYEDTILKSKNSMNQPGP
smiles,measurement,setting,value
"N#Cc1cc(-c2ncnc(Nc3ccc(N4CCN(C5COC5)CC4)cc3)n2)ccc1OC1CCOCC1 [Compound 1, 5-(4-((4-(4-(oxetan-3-yl)piperazin-1-yl)phenyl)amino)-1,3,5-triazin-2-yl)-2-((tetrahydro-2H-pyran-4-yl)oxy)benzonitrile]",inhibition,off-target kinases [1]; read-out: % Inhibition 1,1%
same,inhibition,off-target kinases [1]; read-out: % Inhibition 2,2%
same,inhibition,off-target kinases [1]; read-out: % Inhibition Avg,2%
same,inhibition,off-target kinases [2]; read-out: % Inhibition 1,30%
same,inhibition,off-target kinases [2]; read-out: % Inhibition 2,33%
same,inhibition,off-target kinases [2]; read-out: % Inhibition Avg,31%
same,inhibition,off-target kinases [3]; read-out: % Inhibition 1,0%
same,inhibition,off-target kinases [3]; read-out: % Inhibition 2,7%
same,inhibition,off-target kinases [3]; read-out: % Inhibition Avg,4%
same,% Inhibition 1,"off-target kinases [4]; Cmpd1 1000 μM, ATP 100, ZLYTE",−18%
same,% Inhibition 2,"off-target kinases [4]; Cmpd1 1000 μM, ATP 100, ZLYTE",−10%
same,% Inhibition Avg,"off-target kinases [4]; Cmpd1 1000 μM, ATP 100, ZLYTE",−14%
same,inhibition,off-target kinases [4]; read-out: % Inhibition 1,44%
same,inhibition,off-target kinases [4]; read-out: % Inhibition 2,47%
same,inhibition,off-target kinases [4]; read-out: % Inhibition Avg,46%
same,inhibition,off-target kinases [5]; read-out: % Inhibition 1,57%
same,inhibition,off-target kinases [5]; read-out: % Inhibition 2,43%
same,inhibition,off-target kinases [5]; read-out: % Inhibition Avg,50%
